The subject of data set [1] is oligodendrocyte progenitor cells (OPC). The data set is described as follows: 96-well OPC screening platform: oligodendrocyte generation from primary OPCs. Particulars: for EC50: Mus musculus, Oligodendrocyte progenitor cell. In kind it is cell-based, mouse. The procedure:
1) an optimized method to produce primary culture of highly pure mouse oligodendrocyte progenitor cells (OPC); and
2) an algorithm to identify and quantify oligodendrocytes in 96-well format.
(§1) Briefly, the high-throughput small molecule screen included a primary screening where small drug-like organic compounds ([…]) are added to cells seeded on a 96-well plate an incubated. The cells are then visually screened for oligodendrocyte precursor morphology changes. In a secondary screening, differentiation induced by selected compounds was further validated by fluorescence microscopy. Increased fluorescence in treated oligodendrocyte cells generated from a PIp-EGFP transgenic mouse was indicative of cell maturation. Further oligodendrocyte precursor maturation in response to selected compounds was assessed by induction of myelin protein expression as determined by immunocytochemistry and western blot.
Using the 96-well OPC-screening platform, a CNS-bias library of 20,000 drug-like small molecule compounds (Cambridge Co., San Diego, Calif.) was screened, using DMSO as a negative control and T3 (triiodothyronine) as a positive control. Initial screening was at 10 μM, and 390 primary hits were identified. Further testing confirmed that 57 compounds produced at least 50% response of T3.

The nature of data set [2]: Solubility. Type of data set: physicochemical.
The test system of data set [3] is cuprizone mouse model of demyelination/remyelination. Put plainly: Cuprizone/rapamycin demyelination and remyelination model. Type of data set: in vivo, mice. The following applies: i.p. daily 6 weeks, 10 mg/kg, vs control. The text has this: 2016; 283(Pt A): 330-340, which is incorporated herein by reference in its entirety. […] At the end of the treatment period, mice were perfused and different tissues analyzed for remyelination. In cortex and hippocampus, PLP antibody staining was used to assess remyelination. In corpus callosum, the number of myelinated axons in semi-thin (1 μm) Epon sections was quantified. […] This in vivo animal data further validates a strategy of using cell-based phenotypic screening to identify remyelination compounds.

A short description of data set [4]: Preliminary pharmacokinetic analysis, i.p. injection, LC/MS/MS of plasma and brain. In kind it is in vivo. The following applies: i.p. 10 mg/kg, mice.
Data set [5] is described as follows: MTT assay (viability). Type of data set: cell-based. The following applies: up to 30 μM. (In general: Tetrazolium assays rely on reduction of a dye to a coloured formazan, in cell work by metabolically active cells.)
Data set [6] deals with OPCs (PLP-EGFP). The data set is described as follows: Immunostaining of oligodendrocyte markers PLP and MBP in treated OPCs. Type of data set: cell-based, mouse. Particulars: 4 days treatment. The procedure: as §1
Finally, similar activation of oligodendrocyte markers was observed when wild-type OPCs were treated with the “hit” compounds, eliminating the possibility that expression of the EGFP construct affected the results.

Ten compounds from US20230257350A1, “COMPOUNDS AND METHODS OF PROMOTING OLIGODENDROCYTE PRECURSOR DIFFERENTIATION” (The Cleveland Clinic Foundation, priority 2020, published 2023) can be followed below.

In general, EC50 refers to the concentration that produces a half-maximal response. Read a high EC50 as a need for much substance. Usually solubility stands for how much of the substance goes into solution per volume. The low end stands for little dissolved substance, the high end for much dissolved substance. Usually viability stands for a read-out of living cells in per cent, often relative to untreated cells. Low values mean more harm to the cells, high ones less harm to the cells.

`CC1CCN(CCOCCOc2c(Cl)cc(Cl)cc2Cl)CC1` [CN045]: in data set [1] (Table 1, OPC differentiation), a half-maximal response (EC50) required 40 nM. The “increase in the percentage of oligodendrocytes compared with DMSO controls” value in data set [1] (dose-response, FIG. 3B) is recorded as ~4 fold. In addition, in data set [1] (same OPC assay, multiple concentrations, FIG. 2), the “efficacy compared with benztropine, clemastine or T3” value is on record as “almost twice the efficacy”. Besides, the solubility in data set [2] is > 500 µM. Besides, in data set [3] (p<0.01), the “remyelination in corpus callosum (number of myelinated axons)” value is recorded as “significantly increased remyelination” and the “remyelination in cortex (PLP antibody staining)” value is recorded as “significantly increased remyelination”. The “remyelination in hippocampus (PLP antibody staining)” value in data set [3] (p<0.05) was “significantly increased remyelination”. Further, in data set [4] (C57BU6J, mouse, ip, brain homogenate vs. plasma, read-out: brain/plasma ratio), the Kp amounted to 0.8. Further, in data set [4], the “time of peak concentration following injection” value is ~2 h. In data set [5], the viability is listed as > 80%. In addition, the “co-labeling of EGFP+ cells by PLP and MBP antibodies” value in data set [6] is “All EGFP+ cells were co-labeled by PLP and MBP antibodies”.

`Cc1ccc(OCCOCCN2CCC(C)CC2)c(Cl)c1` [CN570] registered an EC50 in data set [1] (Table 1, OPC differentiation) of 200 nM.

In data set [1] (Table 1, OPC differentiation), `Cc1cc(Cl)cc(Cl)c1OCCOCCN1CCN(C)CC1` [CN265] returned a concentration giving a half-maximal response (EC50) of 540 nM.

In data set [1] (Table 2, OPC differentiation), `Fc1cc(Cl)ccc1OC[C@@H]1CCCN2CCCC[C@H]12` [CN566] returned an EC50 of 340 nM.

`Cc1cc(Cl)ccc1OCCOCCN1CCC(C)CC1` [CN918] registered an EC50 in data set [1] (Table 1, OPC differentiation) of 193 nM.

As for `Cc1cc(Cl)cc(C)c1OCCCCN1CCOCC1` [CN644], in data set [1] (Table 2, OPC differentiation), a half-maximal response (EC50) required 270 nM.

On to `CC1CCC(N2CCN(Cc3cccc(Br)c3)CC2)CC1` (centres unmarked) [CN007], for which the response in data set [1] was half-maximal at 40 nM (EC50).

In data set [1] (Table 1, OPC differentiation), `CCc1cc(OCCOCCN2CCC(C)CC2)ccc1Cl` [CN049] showed an EC50 of 165 nM.

As for `Cc1cc(Cl)cc(C)c1OCCCCN1CCCCC1` [CN478], it took 78 nM to reach a half-maximal effect in data set [1] (Table 2, OPC differentiation) (EC50).

Regarding `Cc1cc(Cl)cc(C)c1OCCCCN1CCC[C@H](C)C1` [CN329], it took 42 nM to reach a half-maximal effect in data set [1] (Table 2, OPC differentiation) (EC50).
